SMILES strings stand for the structures. In brackets after ≈: the same amount, converted by molar mass. Activity calls are given as the source filed them. The calls are words filed in the database; no cut-off is given here.

Holding throughout (assay type): functional
Assay [1] has as its system Mycobacterium tuberculosis. Put plainly: Antimicrobial activity against clinical isolate Isoniazid-resistant Mycobacterium tuberculosis assessed as growth inhibition after 7 days by turbidometry. As to conditions: 168 h.
Assay [2] has as its system Mycobacterium tuberculosis. Put plainly: Antimicrobial activity against clinical isolate Rifampin-resistant Mycobacterium tuberculosis assessed as growth inhibition after 7 days by turbidometry. As to conditions: 168 h.
Assay [3] has as its system Mycobacterium tuberculosis. Put plainly: Antimicrobial activity against second mutant generation Mycobacterium tuberculosis 1024_18 assessed as fold shift in MIC relative to parent strain.
Assay [4] has as its system Mycobacterium tuberculosis. Put plainly: Antimicrobial activity against second mutant generation Mycobacterium tuberculosis 1024_16.5 assessed as fold shift in MIC relative to parent strain.
The subject of assay [5] is Mycobacterium tuberculosis. Put plainly: Antimicrobial activity against second mutant generation Mycobacterium tuberculosis 1024_16.6 assessed as fold shift in MIC relative to parent strain.
The subject of assay [6] is Mycobacterium tuberculosis. Put plainly: Antimicrobial activity against second mutant generation Mycobacterium tuberculosis 1024_8.12 assessed as fold shift in MIC relative to parent strain.
In assay [7] the test system is Mycobacterium tuberculosis. Put plainly: Antimicrobial activity against first mutant generation Mycobacterium tuberculosis 1024_1 assessed as fold shift in MIC relative to parent strain.
In assay [8] the test system is Mycobacterium tuberculosis. Put plainly: Antimicrobial activity against Mycobacterium tuberculosis H37Rv over-expressing InhA cells assessed as upshift of MIC relative to wild type.
The subject of assay [9] is Mycobacterium tuberculosis. Put plainly: Antimicrobial activity against first mutant generation Mycobacterium tuberculosis 1024_18 assessed as fold shift in MIC relative to parent strain.

On to `CCCc1cc(-c2nc(-c3cccc(OC)c3)cs2)ccn1`, for which the MIC80 (in general, an inhibitory concentration at the 80% level, which refers to growth in some studies and to a panel of isolates in others) is 1 µg/mL (≈ 3.22 µM) in assay [1] and 0.5 µg/mL (≈ 1.61 µM) in assay [2].
For the compound `CCCc1cc(-c2nc(-c3ccc(NS(C)(=O)=O)cc3)cs2)ccn1`, the MIC80 in [1] came out at 0.5 µg/mL (≈ 1.34 µM); in [2], 0.13 µg/mL (≈ 0.348 µM).
As for `CCCc1cc(-c2nc(-c3ccc(OCC4CC4)cc3)cs2)ccn1`, the results for the MIC80 in [1] and in assay [2] were 1 µg/mL (≈ 2.85 µM) and 0.13 µg/mL (≈ 0.371 µM), respectively.
`CCCc1cc(-c2nc(-c3ccc(OCCN4CCOCC4)cc3)cs2)ccn1`: the Ratio in assay [3] is given as 8; in assay [4] it was 4; in assay [5], over 8; in assay [6], 8. Further, the MIC80 in assay [1] stood at 1 µg/mL (≈ 2.44 µM); in [2] it was 0.5 µg/mL (≈ 1.22 µM).
For the compound `CCCc1cc(-c2nc(-c3ccncc3)cs2)ccn1`, the Ratio in assay [3] worked out at 8; in assay [4] it was 16; in [7], 16; in [5] it was 16; in [6], 8; in assay [9], 8. Also, the result in assay [8] was Active.
Consider `CCCc1cc(-c2nc(-c3ccccn3)cs2)ccn1`, for which the result in assay [8] was Active.
`CCCc1cc(-c2csc(-c3ccnc(CCC)c3)n2)ccn1`: the result in assay [8] was Active.
For `CCCc1cc(-c2nc(-c3ccnc(OCC)c3)cs2)ccn1`, the outcome in [8] was Active.
As to `COc1nc2ccc(Br)cc2cc1[C@@H](c1ccccc1)[C@@](O)(CCN(C)C)c1cccc2ccccc12` [BEDAQUILINE], the Ratio in assay [3] came out at 0.25; in assay [4], 0.5; in [7], 1; in assay [5], 0.5; in assay [6], 0.25; in assay [9], 0.5.
For `CCc1cc(C(N)=S)ccn1` [ETHIONAMIDE], the “fold change (FC)” value in [8] was 8.
Consider `CCCc1cc(-c2nc(-c3ccc(C)cc3)cs2)ccn1` [FATOSTATIN], for which the Ratio was 16 in [3]; 16 in assay [4]; 8 in assay [7]; over 32 in [5]; 16 in assay [6]; 16 in assay [9]. Moreover, in assay [8], the result was Active.
For the compound `NNC(=O)c1ccncc1` [ISONIAZID], the Ratio in assay [3], in assay [4], in [7], in assay [5], in assay [6] and in assay [9] was 1 each time. The MIC80 in [1] is over 16 µg/mL; in assay [2], 0.03 µg/mL (≈ 0.219 µM). Also, in assay [8], the “fold change (FC)” value is given as 8.
As for `CC(=O)NC[C@H]1CN(c2ccc(N3CCOCC3)c(F)c2)C(=O)O1` [LINEZOLID], the Ratio in assay [7] and in assay [9] was 1 throughout.
Regarding `COc1c(N2C[C@@H]3CCCN[C@@H]3C2)c(F)cc2c(=O)c(C(=O)O)cn(C3CC3)c12` [MOXIFLOXACIN], the Ratio in assay [3] is recorded as 0.5; in [4] it was 1; in [7], 1; in [5], 1; in assay [6] it was 1; in [9], 1.
Take `CO[C@H]1/C=C/O[C@@]2(C)Oc3c(C)c(O)c4c(O)c(c(/C=N/N5CCN(C)CC5)c(O)c4c3C2=O)NC(=O)/C(C)=C\C=C\[C@H](C)[C@H](O)[C@@H](C)[C@@H](O)[C@@H](C)[C@H](OC(C)=O)[C@@H]1C` [RIFAMPIN]: the MIC80 in assay [1] was 0.003 µg/mL (≈ 0.00365 µM); in [2] it was over 16 µg/mL. Further, the Ratio in [7] and in assay [9] was 0.5 each time.
As for `Oc1cc(Cl)ccc1Oc1ccc(Cl)cc1Cl` [TRICLOSAN], in assay [8], the “fold change (FC)” value amounted to 8.

The record behind these values is ChEMBL document CHEMBL3351699, “Diarylthiazole: an antimycobacterial scaffold potentially targeting PrrB-PrrA two-component system” (J Med Chem, 2014).
